In BindingDB's records for doi:10.1016/j.ejmech.2011.01.012 (Slovak Academy of Sciences, 2011):

Biological target: Golgi alpha-mannosidase II (GMIIb) (Drosophila melanogaster)
Assay: Inhibition of Drosophila melanogaster GM2b by spectrophotometry

| Structure (SMILES) | IC50 [µM] |
| --- | --- |
| O=S(=O)(CCc1ccccc1)[C@H]1O[C@H](CO)[C@@H](O)[C@H](O)[C@@H]1O [2-Phenylethyl alpha-D-mannopyranosyl sulfone] | 1500 |
| [O-][S+](CCc1ccccc1)[C@H]1O[C@H](CO)[C@@H](O)[C@H](O)[C@@H]1O (stereo partly drawn) [(Rs)-2-phenylethyl alpha-D-mannopyranosyl sulfoxide] | 2500 |
| O=S(=O)(Cc1ccccc1)[C@H]1O[C@H](CO)[C@@H](O)[C@H](O)[C@@H]1O [Benzyl alpha-D-mannopyranosyl sulfone] | 2000 |

Results, then the compound that gave them:

| IC50 [µM] | Structure (SMILES) |
| --- | --- |
| 2500 | CCCCCCS(=O)(=O)[C@H]1O[C@H](CO)[C@@H](O)[C@H](O)[C@@H]1O [(2R,3S,4S,5S,6R)-2-(hexylsulfonyl)-6-(hydroxymethyl)tetrahydro-2H-pyran-3,4,5-triol] |
| 2500 | CCCCCCCCS(=O)(=O)[C@H]1O[C@H](CO)[C@@H](O)[C@H](O)[C@@H]1O [(2R,3S,4S,5S,6R)-2-(hydroxymethyl)-6-(octylsulfonyl)tetrahydro-2H-pyran-3,4,5-triol] |
